# Measured values taken from patent US9828350B2, “5,6-dihydro-2H-[1,4]oxazin-3-yl-amine derivatives useful as inhibitors of beta-secretase (BACE)” (Janssen Pharmaceutica NV, priority 2010, dated 2017).
# Counter-ions that a name gives are not always drawn.
# How the values were obtained:
# [1] = target: recombinant BACE1 protein (Homo sapiens, UniProt P56817); assay: Biochemical FRET based assay; conditions: recombinant BACE1 1 μg/ml, 120 minutes at room temperature, pH 5.0; for IC50: read-out: Biochemical FRET based assay pIC50 (converted)
# Sequence of recombinant BACE1 protein (P56817 46-501): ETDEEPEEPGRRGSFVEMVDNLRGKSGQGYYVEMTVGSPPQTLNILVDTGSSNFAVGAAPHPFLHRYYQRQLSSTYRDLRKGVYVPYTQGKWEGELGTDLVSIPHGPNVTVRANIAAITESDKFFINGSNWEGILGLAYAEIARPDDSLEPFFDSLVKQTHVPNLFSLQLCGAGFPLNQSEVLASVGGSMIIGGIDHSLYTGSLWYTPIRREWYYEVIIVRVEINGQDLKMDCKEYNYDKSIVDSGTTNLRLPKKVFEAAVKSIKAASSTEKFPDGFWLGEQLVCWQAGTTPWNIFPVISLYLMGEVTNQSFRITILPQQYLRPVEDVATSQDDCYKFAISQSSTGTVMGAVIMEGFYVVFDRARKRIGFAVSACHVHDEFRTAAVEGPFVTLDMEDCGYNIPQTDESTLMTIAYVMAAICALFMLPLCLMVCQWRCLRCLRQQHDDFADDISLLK
# Summary of the method: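 Recombinant BACE1 (1 μg/ml final) was incubated 120 minutes at room temperature with […] Mca/Dnp-labelled 13-mer APP Swedish-mutant peptide in 40 mM citrate pH 5.0, 0.04% PEG, 4% DMSO, with or without compound. Cleavage was measured as fluorescence (ex 320/em 405 nm), given as RFU difference between T120 and T0.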
# Abeta total = assay: Cellular αLisa assay in SKNBE2 cells, Abeta total; type: cell-based, human; conditions: incubated for 18 hours; for IC50: Homo sapiens, SKNBE2, 18 h, read-out: Cellular αLisa assay in SKNBE2 cells Abetatotal pIC50 (converted)
# Summary of the method: (§1)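 Human neuroblastoma SKNBE2 cells expressing wild-type hAPP695 were incubated with compound for 18 hours. Secreted Abeta total and Abeta 1-42 in medium were quantified by sandwich αLisa: biotinylated AbN/25 on streptavidin donor beads with Ab4G8 (total) or cAb42/26 (1-42) acceptor beads. Light emission read after 1 hour (ex 650 nm, em 615 nm).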
# Abeta 1-42 = assay: Cellular αLisa assay in SKNBE2 cells, Abeta 1-42; type: cell-based, human; conditions: incubated for 18 hours; for IC50: Homo sapiens, SKNBE2, 18 h, read-out: Cellular αLisa assay in SKNBE2 cells Abeta 42 pIC50 (converted)
# Summary of the method: as §1
smiles,measurement,setting,value
C[C@@]1(c2cccc(-c3cncnc3)c2)COC2(CC2)C(N)=N1 (as salt: fumarate) [Compound 74],melting point,,193.3 °C
"CC1(c2cccc(-c3ccccc3)c2)COCC(N)=N1 (racemic) (as salt: TFA) [Compound 1, rac-5-biphenyl-3-yl-5-methyl-5,6-dihydro-2H-1,4-oxazin-3-amine trifluoroacetate salt]",melting point,,217.2 °C
"N#Cc1cncc(-c2cccc([C@@]3(C4CC4)N=C(N)CO[C@H]3C(F)(F)F)c2)c1 [Compound 253, (5R,6R)-5-{3-[5-amino-3-cyclopropyl-2-(trifluoromethyl)-3,6-dihydro-2H-1,4-oxazin-3-yl]phenyl}pyridine-3-carbonitrile]",IC50,[1],155 nM
same,IC50,Abeta total,50.1 nM
same,IC50,Abeta 1-42,49 nM
CCC1(c2cc(NC(=O)c3cnc(OC)cn3)ccc2F)N=C(N)COC1F (centres unmarked) [Compound 282],IC50,[1],891 nM
same,Cellular αLisa assay in SKNBE2 cells Abetatotal pIC50,Abeta total,6.65
same,Cellular αLisa assay in SKNBE2 cells Abeta 42 pIC50,Abeta 1-42,6.56
"COc1cncc(-c2cccc(C3(C)N=C(N)COC3C(F)(F)F)c2)c1 (single isomer, unassigned) [Compound 103]",IC50,[1],2090 nM
same,Cellular αLisa assay in SKNBE2 cells Abetatotal pIC50,Abeta total,6.35
same,Cellular αLisa assay in SKNBE2 cells Abeta 42 pIC50,Abeta 1-42,6.38
NC1=N[C@@](c2cccc(-c3cncnc3)c2)(C2CC2)[C@@H](F)OC1 [Compound 257],IC50,[1],891 nM
same,IC50,Abeta total,977 nM
same,IC50,Abeta 1-42,1020 nM
C[C@@]1(c2cc(-c3cc(F)cc(F)c3)c(F)cc2F)COCC(N)=N1 [Compound 37],Biochemical FRET based assay pIC50,[1],5.45
same,Cellular αLisa assay in SKNBE2 cells Abetatotal pIC50,Abeta total,6.79
same,Cellular αLisa assay in SKNBE2 cells Abeta 42 pIC50,Abeta 1-42,6.77
"CC1(c2cc(NC(=O)c3ncc(Cl)cc3F)ccc2F)N=C(N)COC1F (single isomer, unassigned) [Compound 133]",IC50,[1],25.7 nM
same,Cellular αLisa assay in SKNBE2 cells Abetatotal pIC50,Abeta total,8.21
same,Cellular αLisa assay in SKNBE2 cells Abeta 42 pIC50,Abeta 1-42,8.18
"NC1=NC(c2cccc(NC(=O)c3ccc(Cl)cn3)c2)(C2CC2)COC1 (single isomer, unassigned) [Compound 196]",IC50,[1],> 30200 nM
same,Cellular αLisa assay in SKNBE2 cells Abetatotal pIC50,Abeta total,6.95
same,Cellular αLisa assay in SKNBE2 cells Abeta 42 pIC50,Abeta 1-42,6.92
"COc1cncc(-c2ccc(F)c(C3(C)COCC(N)=N3)c2)c1 (single isomer, unassigned) [Compound 156]",Biochemical FRET based assay pIC50,[1],5.69
same,Cellular αLisa assay in SKNBE2 cells Abetatotal pIC50,Abeta total,7.1
same,Cellular αLisa assay in SKNBE2 cells Abeta 42 pIC50,Abeta 1-42,7.02
C[C@@]1(c2cccc(NC(=O)c3ccc(Cl)cn3)c2)COC2(CC2)C(N)=N1 [Compound 73],IC50,[1],102 nM
same,IC50,Abeta total,4.27 nM
same,IC50,Abeta 1-42,4.9 nM
"CC1(c2cccc(-c3cncnc3)c2)N=C(N)COC1(F)C(F)(F)F (single isomer, unassigned) [Compound 139]",IC50,[1],> 30200 nM
same,Cellular αLisa assay in SKNBE2 cells Abetatotal pIC50,Abeta total,<5
same,Cellular αLisa assay in SKNBE2 cells Abeta 42 pIC50,Abeta 1-42,<5
C[C@]1(c2cc(NC(=O)c3ccncn3)ccc2F)N=C(N)CO[C@@]1(F)C(F)(F)F [Compound 182],IC50,[1],550 nM
same,IC50,Abeta total,204 nM
same,IC50,Abeta 1-42,209 nM
CC1(c2cccc(NC(=O)c3ccc(C#N)cn3)c2)COCC(N)=N1 (racemic) [Compound 64],Biochemical FRET based assay pIC50,[1],6.41
same,Cellular αLisa assay in SKNBE2 cells Abetatotal pIC50,Abeta total,7.37
same,Cellular αLisa assay in SKNBE2 cells Abeta 42 pIC50,Abeta 1-42,7.36
CC1(c2cc(NC(=O)c3ccc(F)cn3)ccc2F)COCC(N)=N1 (centres unmarked) [Compound 25],Biochemical FRET based assay pIC50,[1],6.93
same,Cellular αLisa assay in SKNBE2 cells Abetatotal pIC50,Abeta total,7.9
same,Cellular αLisa assay in SKNBE2 cells Abeta 42 pIC50,Abeta 1-42,7.93
CC1(c2cccc(NC(=O)c3cnc(C(F)(F)F)cn3)c2)COCC(N)=N1 (centres unmarked) [Compound 146],Biochemical FRET based assay pIC50,[1],6.26
same,Cellular αLisa assay in SKNBE2 cells Abetatotal pIC50,Abeta total,7.03
same,Cellular αLisa assay in SKNBE2 cells Abeta 42 pIC50,Abeta 1-42,7.07
"COc1cnc(C(=O)Nc2cccc(C3(C)N=C(N)COC3(F)C(F)(F)F)c2)cn1 (single isomer, unassigned) [Compound 177]",IC50,[1],25.1 nM
same,Cellular αLisa assay in SKNBE2 cells Abetatotal pIC50,Abeta total,7.84
same,Cellular αLisa assay in SKNBE2 cells Abeta 42 pIC50,Abeta 1-42,7.83
Cc1cncc(-c2cccc(C3(C)COCC(N)=N3)c2)c1 (racemic) [Compound 11],Biochemical FRET based assay pIC50,[1],4.84
same,Cellular αLisa assay in SKNBE2 cells Abetatotal pIC50,Abeta total,6.33
same,Cellular αLisa assay in SKNBE2 cells Abeta 42 pIC50,Abeta 1-42,6.2
C[C@@]1(c2cc(NC(=O)c3ccc(Cl)cc3F)ccc2F)COCC(N)=N1.Cl [Compound 68],Biochemical FRET based assay pIC50,[1],6.35
same,Cellular αLisa assay in SKNBE2 cells Abetatotal pIC50,Abeta total,7.04
same,Cellular αLisa assay in SKNBE2 cells Abeta 42 pIC50,Abeta 1-42,7.06
N#Cc1cncc(-c2cccc([C@@]3(C4CC4)N=C(N)CO[C@@H]3F)c2)c1 [Compound 311],IC50,[1],1380 nM
same,IC50,Abeta total,1120 nM
same,IC50,Abeta 1-42,1450 nM
N#Cc1cnc(C(=O)Nc2cccc([C@@]3(C4CC4)N=C(N)CO[C@@H]3C(F)(F)F)c2)c(Cl)c1 [Compound 290],IC50,[1],97.7 nM
same,IC50,Abeta total,17.8 nM
same,IC50,Abeta 1-42,18.6 nM
NC1=N[C@@](c2cccc(NC(=O)c3cnc(OCC(F)(F)F)cn3)c2)(C2CC2)[C@H](C(F)(F)F)OC1 [Compound 289],IC50,[1],30.9 nM
same,IC50,Abeta total,10.5 nM
same,IC50,Abeta 1-42,10 nM
N#Cc1cnc(C(=O)Nc2ccc(F)c([C@@]3(C4CC4)N=C(N)CO[C@H]3C(F)(F)F)c2)c(Cl)c1 [Compound 235],IC50,[1],33.1 nM
same,IC50,Abeta total,14.1 nM
same,IC50,Abeta 1-42,14.5 nM
C[C@@]1(c2cc(-c3cc(Cl)cc(Cl)c3)c(F)cc2F)COCC(N)=N1 [Compound 48],Biochemical FRET based assay pIC50,[1],5.73
same,Cellular αLisa assay in SKNBE2 cells Abetatotal pIC50,Abeta total,6.22
same,Cellular αLisa assay in SKNBE2 cells Abeta 42 pIC50,Abeta 1-42,6.19
"CC1(c2cccc(NC(=O)c3ncc(Cl)cc3F)c2)N=C(N)COC1(F)C(F)(F)F (single isomer, unassigned) [Compound 175]",IC50,[1],295 nM
same,Cellular αLisa assay in SKNBE2 cells Abetatotal pIC50,Abeta total,5.24
same,Cellular αLisa assay in SKNBE2 cells Abeta 42 pIC50,Abeta 1-42,5.18
C[C@@]1(c2cccc(-c3cccc(C#N)c3)c2)COCC(N)=N1 [Compound 51],Biochemical FRET based assay pIC50,[1],5.41
same,Cellular αLisa assay in SKNBE2 cells Abetatotal pIC50,Abeta total,6.59
same,Cellular αLisa assay in SKNBE2 cells Abeta 42 pIC50,Abeta 1-42,6.61
CC1(c2cc(NC(=O)c3ccc(C(F)(F)F)cn3)c(F)cc2F)COCC(N)=N1 (racemic) [Compound 13],Biochemical FRET based assay pIC50,[1],5.37
same,Cellular αLisa assay in SKNBE2 cells Abetatotal pIC50,Abeta total,6.84
same,Cellular αLisa assay in SKNBE2 cells Abeta 42 pIC50,Abeta 1-42,6.83
"N#Cc1ccc(C(=O)Nc2ccc(F)c([C@@]3(C4CC4)N=C(N)CO[C@@H]3F)c2)nc1 [Compound 214, (2R,3R)—N-[3-(5-amino-3-cyclopropyl-2-fluoro-3,6-dihydro-2H-1,4-oxazin-3-yl)-4-fluorophenyl]-5-cyanopyridine-2-carboxamide]",IC50,[1],110 nM
same,IC50,Abeta total,708 nM
same,IC50,Abeta 1-42,794 nM
NC1=N[C@@](c2cccc(-c3cncc(F)c3)c2)(C2CC2)[C@H](C(F)(F)F)OC1 [Compound 270],IC50,[1],132 nM
same,IC50,Abeta total,47.9 nM
same,IC50,Abeta 1-42,46.8 nM
CC1(c2cc(NC(=O)c3ncc(Cl)cc3F)ccc2F)N=C(N)COC1F (centres unmarked) [Compound 77],IC50,[1],52.5 nM
same,IC50,Abeta total,11.7 nM
same,IC50,Abeta 1-42,12 nM
"CC1(c2cc(-c3cncnc3)ccc2F)N=C(N)COC1(F)C(F)(F)F (single isomer, unassigned) [Compound 111]",IC50,[1],1480 nM
same,IC50,Abeta total,490 nM
same,IC50,Abeta 1-42,437 nM
"C[C@@]1(c2ccnc(-c3cc(Cl)cc(Cl)c3)c2)N=C(N)CO[C@H]1F (single isomer, unassigned) [Compound 278, (5S*,6S*)-5-[2-(3,5-dichlorophenyl)pyridin-4-yl]-6-fluoro-5-methyl-5,6-dihydro-2H-1,4-oxazin-3-amine]",IC50,[1],8710 nM
same,IC50,Abeta total,3160 nM
same,IC50,Abeta 1-42,3240 nM
COc1cnc(C(=O)Nc2cccc([C@@]3(C4CC4)N=C(N)CO[C@@]3(F)C(F)(F)F)c2)cn1 [Compound 203],IC50,[1],20.4 nM
same,IC50,Abeta total,37.2 nM
same,IC50,Abeta 1-42,37.2 nM
CC1(c2cccc(-c3cccc(C#N)c3)c2)COCC(N)=N1 (racemic) [Compound 10],Biochemical FRET based assay pIC50,[1],5.12
same,Cellular αLisa assay in SKNBE2 cells Abetatotal pIC50,Abeta total,6.58
same,Cellular αLisa assay in SKNBE2 cells Abeta 42 pIC50,Abeta 1-42,6.
